Test results: patent US12606541B2, “PPARg modulators and methods of use” (Eisai R&D Management Co., Ltd., priority 2020, dated 2026)

Columns and labels:
His6-TEV-PPARγ-(234-505) = molecular target: T1, His6-TEV-PPARγ-(234-505) (Homo sapiens, UniProt P37231); assay: TR-FRET Assay to Measure Co-R Peptide Recruitment to PPARγ; assay type: biochemical; settings: Co-R peptide (SMRT-ID2) recruitment; top final concentration 20 μM; read-out: TR-FRET i-Ag; AC50
T1 construct: The His6-TEV-PPARγ-(234-505) protein for assay was expressed and purified; TEV cleavage site (N); made in house
T1 sequence (P37231 234-505): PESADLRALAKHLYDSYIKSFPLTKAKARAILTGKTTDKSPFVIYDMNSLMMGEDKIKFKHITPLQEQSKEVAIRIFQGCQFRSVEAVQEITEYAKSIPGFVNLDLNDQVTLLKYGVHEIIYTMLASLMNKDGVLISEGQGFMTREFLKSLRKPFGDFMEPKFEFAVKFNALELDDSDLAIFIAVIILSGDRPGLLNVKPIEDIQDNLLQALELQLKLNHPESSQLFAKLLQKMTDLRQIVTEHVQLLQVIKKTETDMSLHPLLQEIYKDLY
Procedure, shortened: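 Corepressor recruitment is measured by adding terbium-labeled anti-His antibody and FITC SMRT-ID2 peptide, at 5 and 200 nM final, after a 20-minute room-temperature protein–compound incubation. After one further hour, signal is converted to percent response between DMSO and 500 nM T0070907 wells.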

UM-UC-9 engineered cells = assay: Cell proliferation / short-term viability assay, CellTiter-Glo 144 h; assay type: cell-based, human; settings: Homo sapiens, UM-UC-9, 144 h, read-out: CTGlo 144 h UMUC9.5, G150
Procedure, shortened: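 Viability read by CellTiter-Glo 2.0 luminescence at day 7 versus DMSO-vehicle wells and a T0 plate measured on day 0. Cells: UM-UC-9 engineered assay-ready stocks, 500 cells/well in high-glucose DMEM with 10% FBS, 37° C, 5% CO2.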

| Compound | AC50 (His6-TEV-PPARγ-(234-505)) | IC50 (UM-UC-9 engineered cells) |
| --- | --- | --- |
| COc1cc(-c2cc(C(=O)N3CC[C@H](C(=O)NCc4ncc(C5COC5)cc4Cl)CC34CC4)n[nH]2)c(F)cn1 [Example 392, (S)—N-((3-chloro-5-(oxetan-3-yl)pyridin-2-yl)methyl)-4-(5-(5-fluoro-2-methoxypyridin-4-yl)-1H-pyrazole-3-carbonyl)-4-azaspiro[2.5]octane-7-carboxamide] | 9.1 nM | 45.2 nM |
| COc1cc(-c2cc(C(=O)N3CC[C@H](C(=O)NCc4ncc(N5CC(C#N)C5)cc4Cl)CC34CC4)n[nH]2)c(F)cn1 [Example 393, (S)—N-((3-chloro-5-(3-cyanoazetidin-1-yl)pyridin-2-yl)methyl)-4-(5-(5-fluoro-2-methoxypyridin-4-yl)-1H-pyrazole-3-carbonyl)-4-azaspiro[2.5]octane-7-carboxamide] | 9.2 nM | 106 nM |
| COc1cc(-c2cc(C(=O)N3CC[C@H](C(=O)NCc4nc(C)oc4C(F)(F)F)CC34CC4)n[nH]2)c(F)cn1 [Example 394, (S)-4-(5-(5-fluoro-2-methoxypyridin-4-yl)-1H-pyrazole-3-carbonyl)-N-((2-methyl-5-(trifluoromethyl)oxazol-4-yl)methyl)-4-azaspiro[2.5]octane-7-carboxamide] | 8.7 nM | 24.5 nM |
| COc1cc(-c2cc(C(=O)N3CC[C@H](C(=O)NCc4nccnc4C)CC34CC4)n[nH]2)c(F)cn1 [Example 397, (S)-4-(5-(5-fluoro-2-methoxypyridin-4-yl)-1H-pyrazole-3-carbonyl)-N-((3-methylpyrazin-2-yl)methyl)-4-azaspiro[2.5]octane-7-carboxamide] | 23.4 nM | 59.9 nM |
| COc1cc(-c2cc(C(=O)N3CC[C@H](C(=O)NCc4ncc(F)cc4F)CC34CC4)n[nH]2)c(F)cn1 [Example 400, (S)—N-((3,5-difluoropyridin-2-yl)methyl)-4-(5-(5-fluoro-2-methoxypyridin-4-yl)-1H-pyrazole-3-carbonyl)-4-azaspiro[2.5]octane-7-carboxamide] | 12.6 nM | 24.3 nM |
| COc1cnc(CNC(=O)[C@H]2CCN(C(=O)c3cc(-c4cc(OC)ncc4F)[nH]n3)C3(CC3)C2)c(Cl)c1 [Example 402, (S)—N((3-chloro-5-methoxypyridin-2-yl)methyl)-4-(5-(5-fluoro-2-methoxypyridin-4-yl)-1H-pyrazole-3-carbonyl)-4-azaspiro[2.5]octane-7-carboxamide] | 10.8 nM | 2.9 nM |
| COc1cc(-c2cc(C(=O)N3CC[C@H](C(=O)NCc4ncc(F)cc4N4CCN(C)CC4)CC34CC4)n[nH]2)c(F)cn1 [Example 404, (S)-4-(5-(5-fluoro-2-methoxypyridin-4-yl)-1H-pyrazole-3-carbonyl)-N-((5-fluoro-3-(4-methylpiperazin-1-yl)pyridin-2-yl)methyl)-4-azaspiro[2.5]octane-7-carboxamide] | 164 nM | 887 nM |
| COc1cc(-c2cc(C(=O)N3CC[C@H](C(=O)NC4CN(CC5(F)CC5)C4)CC34CC4)n[nH]2)c(F)cn1 [Example 406, (S)-4-(5-(5-fluoro-2-methoxypyridin-4-yl)-1H-pyrazole-3-carbonyl)-N-(1-((1-fluorocyclopropyl)methyl)azetidin-3-yl)-4-azaspiro[2.5]octane-7-carboxamide] | 34.1 nM | 73.3 nM |
| COc1cc(-c2cc(C(=O)N3CC[C@H](C(=O)NC4CCC5(CC4)N([S+]([O-])C(C)(C)C)CC5(F)F)CC34CC4)n[nH]2)c(F)cn1 (stereo partly drawn) [Example 409, (7S)—N-(1-(tert-butylsulfinyl)-3,3-difluoro-1-azaspiro[3.5]nonan-7-yl)-4-(5-(5-fluoro-2-methoxypyridin-4-yl)-1H-pyrazole-3-carbonyl)-4-azaspiro[2.5]octane-7-carboxamide] | 30.9 nM | 39.1 nM |
| COc1cc(-c2cc(C(=O)N3CC[C@H](C(=O)NCc4nnc(C)cc4C)CC34CC4)n[nH]2)c(F)cn1 [Example 412, (S)—N-((4,6-dimethylpyridazin-3-yl)methyl)-4-(5-(5-fluoro-2-methoxypyridin-4-yl)-1H-pyrazole-3-carbonyl)-4-azaspiro[2.5]octane-7-carboxamide] | 79.2 nM | 198 nM |
| COc1cc(-c2cc(C(=O)N3CC[C@@H](C(=O)NCc4ncc(Cl)cn4)CC34CC4)n[nH]2)c(F)cn1 [Example 413, (R)—N-((5-chloropyrimidin-2-yl)methyl)-4-(5-(5-fluoro-2-methoxypyridin-4-yl)-1H-pyrazole-3-carbonyl)-4-azaspiro[2.5]octane-7-carboxamide] | 15.2 nM | 55 nM |
| COc1cc(-c2cc(C(=O)N3CC[C@H](C(=O)NCc4cccc5ccnn45)CC34CC4)n[nH]2)c(F)cn1 [Example 416, (S)-4-(5-(5-fluoro-2-methoxypyridin-4-yl)-1H-pyrazole-3-carbonyl)-N-(pyrazolo[1,5-a]pyridin-7-ylmethyl)-4-azaspiro[2.5]octane-7-carboxamide] | 6.1 nM | 7.4 nM |
| COc1cc(-c2cc(C(=O)N3CC[C@H](C(=O)NC4CCN(C5COC5)CC4)CC34CC4)n[nH]2)c(F)cn1 [Example 417, (S)-4-(5-(5-fluoro-2-methoxypyridin-4-yl)-1H-pyrazole-3-carbonyl)-N-(1-(oxetan-3-yl)piperidin-4-yl)-4-azaspiro[2.5]octane-7-carboxamide] | 681 nM | 1160 nM |
| COc1cc(-c2cc(C(=O)N3CCC(C(=O)NC4CC5COCC(C4)N5C)CC34CC4)n[nH]2)c(F)cn1 (centres unmarked) [Example 419-A] | 359 nM | 854 nM |
| COc1cc(-c2cc(C(=O)N3CC[C@H](C(=O)NC4CCN(S(C)(=O)=O)CC4)CC34CC4)n[nH]2)c(F)cn1 [Example 420, (S)-4-(5-(5-fluoro-2-methoxypyridin-4-yl)-1H-pyrazole-3-carbonyl)-N-(1-(methylsulfonyl)piperidin-4-yl)-4-azaspiro[2.5]octane-7-carboxamide] | 231 nM | 1370 nM |
| COc1cc(-c2cc(C(=O)N3CC[C@H](C(=O)N[C@@H]4CN(c5ccc(C)nc5)C[C@H]4F)CC34CC4)n[nH]2)c(F)cn1 [Example 426, (S)—N-((3R,4R)-4-fluoro-1-(6-methylpyridin-3-yl)pyrrolidin-3-yl)-4-(5-(5-fluoro-2-methoxypyridin-4-yl)-1H-pyrazole-3-carbonyl)-4-azaspiro[2.5]octane-7-carboxamide] | 24 nM | 50.9 nM |
| COc1cc(-c2cc(C(=O)N3CC[C@H](C(=O)N[C@H]4CN(c5ccc(C)nc5)C[C@@H]4F)CC34CC4)n[nH]2)c(F)cn1 [Example 427, (S)—N-((3S,4S)-4-fluoro-1-(6-methylpyridin-3-yl)pyrrolidin-3-yl)-4-(5-(5-fluoro-2-methoxypyridin-4-yl)-1H-pyrazole-3-carbonyl)-4-azaspiro[2.5]octane-7-carboxamide] | 10.5 nM | 4.2 nM |
| COc1cc(-c2cc(C(=O)N3CC[C@H](C(=O)N[C@H]4CN(c5ccc(C)nc5)C[C@H]4F)CC34CC4)n[nH]2)c(F)cn1 [Example 428, (S)—N-((3S,4R)-4-fluoro-1-(6-methylpyridin-3-yl)pyrrolidin-3-yl)-4-(5-(5-fluoro-2-methoxypyridin-4-yl)-1H-pyrazole-3-carbonyl)-4-azaspiro[2.5]octane-7-carboxamide] | 54.7 nM | 141 nM |
| COc1cc(-c2cc(C(=O)N3CC[C@H](C(=O)NC4C5CN(C6COC6)CC54)CC34CC4)n[nH]2)c(F)cn1 (stereo partly drawn) [Example 429, (7S)-4-(5-(5-fluoro-2-methoxypyridin-4-yl)-1H-pyrazole-3-carbonyl)-N-(3-(oxetan-3-yl)-3-azabicyclo[3.1.0]hexan-6-yl)-4-azaspiro[2.5]octane-7-carboxamide] | 347 nM | 1040 nM |
| COc1cc(-c2cc(C(=O)N3CC[C@H](C(=O)Nc4cnn5ccc(Cl)nc45)CC34CC4)n[nH]2)c(F)cn1 [Example 430, (S)—N-(5-chloropyrazolo[1,5-a]pyrimidin-3-yl)-4-(5-(5-fluoro-2-methoxypyridin-4-yl)-1H-pyrazole-3-carbonyl)-4-azaspiro[2.5]octane-7-carboxamide] | 5 nM | 8.4 nM |
| COc1cc(-c2cc(C(=O)N3CC[C@H](C(=O)NCc4nccnc4C(F)(F)F)CC34CC4)n[nH]2)c(F)cn1 [Example 432, (S)-4-(5-(5-fluoro-2-methoxypyridin-4-yl)-1H-pyrazole-3-carbonyl)-N-((3-(trifluoromethyl)pyrazin-2-yl)methyl)-4-azaspiro[2.5]octane-7-carboxamide] | 4.1 nM | 9.1 nM |
| COc1cc(-c2cc(C(=O)N3CC[C@H](C(=O)NCc4ncc(N5CC(C)NC(C)C5)cc4Cl)CC34CC4)n[nH]2)c(F)cn1 (stereo partly drawn) [Example 434, (7S)—N-((3-chloro-5-(3,5-dimethylpiperazin-1-yl)pyridin-2-yl)methyl)-4-(5-(5-fluoro-2-methoxypyridin-4-yl)-1H-pyrazole-3-carbonyl)-4-azaspiro[2.5]octane-7-carboxamide] | 11.9 nM | 45.3 nM |
